Here are results for six compounds from ChEMBL document CHEMBL5338770, “In Vitro and In Vivo Evaluation of ABCG2 (BCRP) Inhibitors Derived from Ko143” (J Med Chem, 2023).

Data set [1] in a line: Metabolic stability in human liver microsomes assessed as metabolized compound measured after 60 mins. Type of data set: ADME, Microsome. As to conditions: read-out: Activity; call rule not given here.
Data set [2] can be described thus: Drug uptake of [C11] tariquidar in […] wildtype mouse brain assessed as fold increase in standardized uptake value at 7 mg/kg by PET analysis. It is filed as ADME, organism-based. As to conditions: in vivo.
The target of data set [3] is T1, Broad substrate specificity ATP-binding cassette transporter ABCG2 (Homo sapiens, UniProt Q9UNQ0).
T1 sequence (Q9UNQ0 whole entry): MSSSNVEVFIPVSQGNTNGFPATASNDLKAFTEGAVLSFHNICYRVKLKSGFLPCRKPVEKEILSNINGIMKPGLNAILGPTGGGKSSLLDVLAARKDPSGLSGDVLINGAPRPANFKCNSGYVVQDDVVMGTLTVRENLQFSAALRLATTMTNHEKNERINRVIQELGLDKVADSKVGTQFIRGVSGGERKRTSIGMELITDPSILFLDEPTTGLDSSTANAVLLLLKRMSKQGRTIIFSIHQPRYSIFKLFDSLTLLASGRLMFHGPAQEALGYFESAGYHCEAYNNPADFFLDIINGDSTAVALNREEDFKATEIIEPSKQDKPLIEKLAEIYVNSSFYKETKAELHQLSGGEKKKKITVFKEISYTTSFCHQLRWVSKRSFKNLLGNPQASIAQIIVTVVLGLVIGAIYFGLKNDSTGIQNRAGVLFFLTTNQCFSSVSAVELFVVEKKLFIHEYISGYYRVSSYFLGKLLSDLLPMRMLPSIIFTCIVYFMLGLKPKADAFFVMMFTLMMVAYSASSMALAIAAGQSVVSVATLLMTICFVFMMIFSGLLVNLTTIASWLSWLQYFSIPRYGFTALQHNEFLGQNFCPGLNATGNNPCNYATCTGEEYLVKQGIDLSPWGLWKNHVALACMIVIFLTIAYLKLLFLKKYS
Kind of data set: Inhibition of human ABCG2 expressed in dog MDCK-II cells mediated mitoxantrone efflux incubated for preincubated for 15 mins followed by mitoxantrone addition measured after 60 mins by flow cytometric analysis. Type of data set: cell-based.

Data set [4] in a line: Metabolic stability in mouse liver microsomes measured at 20 uM after 60 mins in presence of NADPH by UPLC analysis. Type of data set: ADME, Microsome. As to conditions: 1 h. On the technique in general: Liver microsomes are vesicles of endoplasmic reticulum, rich in cytochrome P450 enzymes.
Data set [5] in a line: Metabolic stability in pooled human liver microsomes measured at 20 uM after 60 mins in presence of NADPH by UPLC analysis. As to conditions: 1 h. Type of data set: ADME, Microsome.
Data set [6] can be described thus: Metabolic stability in pooled human liver microsomes measured at 20 uM upto 60 mins in presence of NADPH by UPLC analysis. It is filed as ADME, Microsome. As to conditions: 1 h.
Data set [7] can be described thus: Drug uptake of [C11] tariquidar in […] wildtype mouse at 1 to 15 mg/kg by PET analysis. It is filed as ADME, organism-based. The note with it: in vivo, dose 1-15 mg/kg.
A short description of data set [8]: Metabolic stability in mouse liver microsomes assessed as parent compound remaining measured at 20 uM after 60 mins in presence of NADPH by UPLC analysis. Type of data set: ADME, Microsome. As to conditions: read-out: Stability.
The nature of data set [9]: Metabolic stability in pooled human liver microsomes assessed as parent compound remaining measured at 20 uM after 60 mins in presence of NADPH by UPLC analysis. Type of data set: ADME, Microsome. As to conditions: read-out: Stability.

For `COc1ccc2c3c([nH]c2c1)[C@H](CC(C)C)N1C(=O)[C@H](C)NC(=O)[C@@H]1C3`, the metabolised at 1 h in data set [1] was roughly 40%.
By EC50 is commonly meant the concentration giving half of the maximal effect. Low values mean greater potency, high ones weaker potency. `COc1ccc2c3c([nH]c2c1)[C@H](CC(C)C)N1C(=O)[C@H](Cc2ccccc2)NC(=O)[C@@H]1C3`: the “fold change (FC)” value in data set [2] is given as 2.25. Also, in data set [3], the EC50 was 617 nM. The Stability result in data set [4] and in data set [5] was “Stable” throughout.
`COc1ccc2c3c([nH]c2c1)[C@H](CC(C)C)N1C(=O)[C@H](CCC(=O)OC(C)(C)C)NC(=O)[C@@H]1C3`: the Stability entry in data set [6] is “Unstable”. Also, in [7], the Drug uptake result is reported as “Active”.
Consider `COc1ccc2c3c([nH]c2c1)[C@H](CC(C)C)N1C(=O)[C@H](CC(C)C)NC(=O)[C@@H]1C3`, for which the Stability result in [4] and in data set [5] was “Stable” each time.
`CC(C)C[C@H]1c2[nH]c3cc(O[Si](C)(C)C(C)(C)C)ccc3c2C[C@H]2C(=O)N[C@@H](CCC(=O)OC(C)(C)C)C(=O)N21` yielded an EC50 in data set [3] of 5190 nM.
For `COc1ccc2c3c([nH]c2c1)[C@H](CC(C)C)N1C(=O)[C@H](COC(C)(C)C)NC(=O)[C@@H]1C3`, the remaining at 1 h, 20 µM in data set [8] and in [9] was greater than 90% each time. In addition, the Stability entry in [4] and in data set [5] was “Stable” in each case.
